How the values were obtained:
bermuda-grass = assay: Test D bermudagrass; assay type: in vivo, Cynodon dactylon; settings: Postemergence, 0 to 100 scale
sandbur = assay: Test D sandbur; assay type: in vivo, Cenchrus echinatus; settings: Postemergence, 0 to 100 scale
Green foxtail = assay: Test D green foxtail; assay type: in vivo; settings: Postemergence, 0 to 100 scale, 0 no injury, 100 complete control
large crabgrass = assay: Test D large crabgrass; assay type: in vivo, Digitaria sanguinalis; settings: Postemergence, 0 to 100 scale
Alexandergrass = assay: Test D Alexandergrass; assay type: in vivo, Brachiaria plantaginea; settings: Postemergence, 0 to 100 scale
itchgrass = assay: Test D itchgrass; assay type: in vivo, Rottboellia exaltata; settings: Postemergence, 0 to 100 scale
surinam grass = assay: Test D surinam grass; assay type: in vivo, Brachiaria decumbens; settings: Postemergence, 0 to 100 scale
common pursiane = assay: Test D common purslane; assay type: in vivo, Portulaca oleracea; settings: Postemergence, 0 to 100 scale
[1] = Rate 16 g/ha, 0 no injury, 100 complete control
[2] = Rate 32 g/ha, 0 no injury, 100 complete control
[3] = Rate 64 g/ha, 0 no injury, 100 complete control
[4] = Rate 125 g/ha, 0 no injury, 100 complete control

Compound	Plant response rating, Bermudagrass (bermuda-grass; [1])	Plant response rating, Bermudagrass (bermuda-grass; [2])	Plant response rating, Bermudagrass (bermuda-grass; [3])	Plant response rating, Bermudagrass (bermuda-grass; [4])	Plant response rating, Bermudagrass (bermuda-grass; Rate 250 g/ha)	Plant response rating, Sandbur (sandbur; [1])	Plant response rating, Sandbur (sandbur; [2])	Sandbur plant response rating (sandbur; [3])	Sandbur plant response rating (sandbur; [4])	Plant response rating, Sandbur (sandbur; Rate 250 g/ha)	Plant response rating, Green foxtail (Green foxtail; Rate 16 g/ha)	Plant response rating, Green foxtail (Green foxtail; Rate 32 g/ha)	Plant response rating, Large crabgrass (large crabgrass; [1])	Plant response rating, Large crabgrass (large crabgrass; [2])	Plant response rating, Large crabgrass (large crabgrass; [3])	Plant response rating, Large crabgrass (large crabgrass; [4])	Plant response rating, Large crabgrass (large crabgrass; Rate 250 g/ha)	Plant response rating, Alexandergrass (Alexandergrass; [1])	Plant response rating, Alexandergrass (Alexandergrass; [2])	Plant response rating, Alexandergrass (Alexandergrass; [3])	further results
CC(C)N(C(=O)n1oc(=O)n(C2CC2)c1=O)c1ccc(Cl)cc1 [Compound 241]	0	30	100	100	100	0	40	20	100	90	0	10	0	70	100	100	100	0	10	10	Plant response rating, Alexandergrass (Alexandergrass; [4]): 100; Plant response rating, Alexandergrass (Alexandergrass; Rate 250 g/ha): 100; Plant response rating, Itchgrass (itchgrass; [1]): 0; Plant response rating, Itchgrass (itchgrass; [2]): 0; Plant response rating, Itchgrass (itchgrass; [3]): 0; Plant response rating, Itchgrass (itchgrass; [4]): 100; Plant response rating, Itchgrass (itchgrass; Rate 250 g/ha): 100; Plant response rating, Surinam grass (surinam grass; [1]): 0; Plant response rating, Surinam grass (surinam grass; [2]): 0; Surinam grass plant response rating (surinam grass; [3]): 60; Surinam grass plant response rating (surinam grass; [4]): 100; Plant response rating, Surinam grass (surinam grass; Rate 250 g/ha): 100; Plant response rating, C. purslane (common pursiane; [1]): 0; Plant response rating, C. purslane (common pursiane; [2]): 0; Plant response rating, C. purslane (common pursiane; [3]): 0; Plant response rating, C. purslane (common pursiane; [4]): 0; Plant response rating, C. purslane (common pursiane; Rate 250 g/ha): 0
CC(C)N(C(=O)n1oc(=O)n(C2CCC2)c1=O)c1ccc(Cl)cc1 [Compound 349]	0	40	70	100	100	0	0	0	20	80	0	0	0	0	70	100	100	0	0	40	Plant response rating, Alexandergrass (Alexandergrass; [4]): 70; Plant response rating, Alexandergrass (Alexandergrass; Rate 250 g/ha): 90; Plant response rating, Itchgrass (itchgrass; [1]): 0; Plant response rating, Itchgrass (itchgrass; [2]): 0; Plant response rating, Itchgrass (itchgrass; [3]): 0; Plant response rating, Itchgrass (itchgrass; [4]): 0; Plant response rating, Itchgrass (itchgrass; Rate 250 g/ha): 0; Plant response rating, Surinam grass (surinam grass; [1]): 0; Plant response rating, Surinam grass (surinam grass; [2]): 0; Surinam grass plant response rating (surinam grass; [3]): 0; Surinam grass plant response rating (surinam grass; [4]): 10; Plant response rating, Surinam grass (surinam grass; Rate 250 g/ha): 60; Plant response rating, C. purslane (common pursiane; [1]): 0; Plant response rating, C. purslane (common pursiane; [2]): 0; Plant response rating, C. purslane (common pursiane; [3]): 0; Plant response rating, C. purslane (common pursiane; [4]): 0; Plant response rating, C. purslane (common pursiane; Rate 250 g/ha): 0
CC(C)N(C(=O)n1oc(=O)n(C2CCC2)c1=O)c1ccccc1 [Compound 348]	0	20	100	100	100	0	0	20	60	100	0	20	20	60	100	100	100	0	0	70	Plant response rating, Alexandergrass (Alexandergrass; [4]): 100; Plant response rating, Alexandergrass (Alexandergrass; Rate 250 g/ha): 100; Plant response rating, Itchgrass (itchgrass; [1]): 0; Plant response rating, Itchgrass (itchgrass; [2]): 0; Plant response rating, Itchgrass (itchgrass; [3]): 0; Plant response rating, Itchgrass (itchgrass; [4]): 0; Plant response rating, Itchgrass (itchgrass; Rate 250 g/ha): 100; Plant response rating, Surinam grass (surinam grass; [1]): 0; Plant response rating, Surinam grass (surinam grass; [2]): 0; Surinam grass plant response rating (surinam grass; [3]): 20; Surinam grass plant response rating (surinam grass; [4]): 80; Plant response rating, Surinam grass (surinam grass; Rate 250 g/ha): 100; Plant response rating, C. purslane (common pursiane; [1]): 0; Plant response rating, C. purslane (common pursiane; [2]): 0; Plant response rating, C. purslane (common pursiane; [3]): 0; Plant response rating, C. purslane (common pursiane; [4]): 0; Plant response rating, C. purslane (common pursiane; Rate 250 g/ha): 0
